According to PubChem BioAssay AID1963972 (Molecular Pharmacology Branch, DTP, NCI, 2024):

System: 945468-187-T-J2-PDC spheroids viability
Assay: Anticancer human tumor 945468-187-T-J2-PDC patient-derived rectal carcinoma cell line growth inhibition [PI3K]
Details: spheroids with HUVEC and MSC; for IC50: curve of first compound; for viability, T/C: stronger effect = lower value
From the text: Combinatorial screen of targeted agents with the PI3K inhibitors inavolisib, alpelisib, duvelisib, and copanlisib in multi-cell type tumor spheroids
A high-throughput screen of multi-cell type tumor spheroids was designed to identify active combinations of targeted small molecules and PI3K pathway inhibitors. Complex spheroids include a stromal component modeled by human endothelial cells (HUVEC) and fibroblasts modeled by human mesenchymal stem cells (MSCs). The concentration ranges selected for each drug and investigational agent were based upon clinically achievable concentrations if the clinical Cmax of the agent was known.
Compounds. The drugs and investigational agents: inavolisib (NSC800729), alpelisib (NSC765974), duvelisib (NSC772469), copanlisib (NSC816437), ipatasertib (NSC767898), afuresertib (NSC778305), talazoparib (NSC767125), sapanisertib (NSC764658), selumetinib (NSC741078), tovorafenib (DAY101, NSC766906), vemurafenib (NSC761431), ravoxertinib (NSC781343), sotorasib (NSC818433), MRTX1133 (NSC 836407), abemaciclib (NSC 768073), palbociclib (NSC758247), venetoclax (NSC 766270), SY5609 (NSC837396), enzalutamide (NSC755605), and darolutamide (NSC825331), were obtained from the National Cancer Institute (NCI) Developmental Therapeutics Program Chemical Repository. The FDA-approved anticancer drug set is available from the NCI Developmental Therapeutics Program. […] The stock solutions were prepared in dimethyl sulfoxide (DMSO, Sigma-Aldrich, St. Louis, MO, cat. D2650) at 800-fold the tested concentration and stored at -70 degrees C prior to their use. All drugs and investigational agents were tested over a range starting from a high concentration at or near the clinical Cmax and decreasing in half-log increments. If the clinical Cmax for an agent had not been determined, the highest concentration tested was 10 microM.
Cell Culture. All cells were maintained in an incubator at 37 degrees C and 5% CO2 with 95% humidity. The PDC lines were cultured according to standard operating procedures established by the NCI PDMR (https://pdmr.cancer.gov/sops/default.htm). All PDCs were thawed and cultured in Matrigel-coated flasks prepared with a working solution of 1X Ham's F-12 nutrient mix, without supplementation (Invitrogen, Waltham, MA, cat. 11765054), 100 U/mL penicillin-streptomycin (Invitrogen, cat. 15140122), and 2.5% Matrigel (Corning Inc., Corning, NY, cat. 354248) for the first three passages. The 354836-022-R-J1-PDC, 475296-252-R-J1-PDC, and 997726-040-R-J2-PDC lines were cultured in 6A media, which includes advanced DMEM/F-12 (Thermo Fisher Scientific, cat. 12634028), 10 mM HEPES (Thermo Fisher Scientific, cat. 15630080), 1X GlutaMAX supplement (Thermo Fisher Scientific, cat. 35050061), 0.1 mg/mL primocin (InvivoGen, San Diego, CA, cat. ant-pm-2), 10% defined fetal bovine serum, heat inactivated (HyClone Laboratories Inc., Logan, UT, cat. SH30070.03HI), 50% L-WRN conditioned media (ATCC, cat. CRL-3276), 1.25 mM N-Acetyl-L-cysteine (Sigma-Aldrich, cat. A9165), 10 mM nicotinamide (Sigma-Aldrich, cat. N0636), 1X B-27 supplement (Thermo Fisher Scientific, cat. 17504044), 1X N-2 supplement (Thermo Fisher Scientific, cat. 17502048), and 10 microM Y-27632 dihydrochloride (Tocris Bioscience, Bristol, United Kingdom, cat. 1254). The 624824-186-R-J2-PDC line was cultured in 6C/Colon 1B media, which includes all 6A media components plus 50 ng/mL human EGF recombinant protein (Thermo Fisher Scientific, cat. PHG0311). […]

[1] = second compound 0.00316 µM, first compound 0.0316 µM
[2] = second compound 0.00316 µM, first compound 0.1 µM
[3] = second compound 0.01 µM, first compound 0.0316 µM
[4] = second compound 0.01 µM, first compound 0.1 µM
[5] = second compound 0.0316 µM, first compound 0.0316 µM
[6] = second compound 0.0316 µM, first compound 0.1 µM
[7] = second compound 0.1 µM, first compound 0.0316 µM
[8] = second compound 0.1 µM, first compound 0.1 µM
[9] = second compound 0.316 µM, first compound 0.0316 µM
[10] = second compound 0.316 µM, first compound 0.1 µM
[11] = second compound 1 µM, first compound 0.0316 µM
[12] = second compound 1 µM, first compound 0.1 µM
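Further: spheroids exposed to compounds for seven days before reading.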

Work on CC(C)NCC(C(=O)N1CCN(c2ncnc3c2C(C)CC3O)CC1)c1ccc(Cl)cc1 (centres undefined) + CC(Nc1ccc2c(c1)OCCn1cc(N3C(=O)OCC3C(F)F)nc1-2)C(N)=O yielded an IC50 (second compound 0.00316 µM) greater than 10 µM, an IC50 (second compound 0.01 µM) greater than 10 µM and an IC50 (second compound 0.0316 µM) greater than 10 µM. It also gave an IC50 (second compound 0.1 µM) greater than 10 µM, an IC50 (second compound 0.316 µM) greater than 10 µM and an IC50 (second compound 1 µM) greater than 10 µM. The viability, T/C [1] was 84.4%, the viability, T/C [2] was 114% and the viability, T/C (second compound 0.00316 µM, first compound 0.316 µM) was 79.4%. It also gave a viability, T/C (second compound 0.00316 µM, first compound 1 µM) of 86.4%, a viability, T/C (second compound 0.00316 µM, first compound 3.16 µM) of 104% and a viability, T/C (second compound 0.00316 µM, first compound 10 µM) of 99.3%. It also gave a viability, T/C [3] of 110%, a viability, T/C [4] of 92.3% and a viability, T/C (second compound 0.01 µM, first compound 0.316 µM) of 96.2%. For the same compound, the viability, T/C (second compound 0.01 µM, first compound 1 µM) was 71.6%, the viability, T/C (second compound 0.01 µM, first compound 3.16 µM) was 97.7% and the viability, T/C (second compound 0.01 µM, first compound 10 µM) was 98.9%. For the same compound, the viability, T/C [5] was 93.6%, the viability, T/C [6] was 89.5% and the viability, T/C (second compound 0.0316 µM, first compound 0.316 µM) was 95.2%. It also gave a viability, T/C (second compound 0.0316 µM, first compound 1 µM) of 90.7%, a viability, T/C (second compound 0.0316 µM, first compound 3.16 µM) of 96.9% and a viability, T/C (second compound 0.0316 µM, first compound 10 µM) of 92.9%. For the same compound, the viability, T/C [7] was 121%, the viability, T/C [8] was 77.1% and the viability, T/C (second compound 0.1 µM, first compound 0.316 µM) was 82.8%. The viability, T/C (second compound 0.1 µM, first compound 1 µM) was 81.3%, the viability, T/C (second compound 0.1 µM, first compound 3.16 µM) was 89.9% and the viability, T/C (second compound 0.1 µM, first compound 10 µM) was 78.4%. For the same compound, the viability, T/C [9] was 72.5%, the viability, T/C [10] was 77.2% and the viability, T/C (second compound 0.316 µM, first compound 0.316 µM) was 76.2%. It also gave a viability, T/C (second compound 0.316 µM, first compound 1 µM) of 87%, a viability, T/C (second compound 0.316 µM, first compound 3.16 µM) of 84.2% and a viability, T/C (second compound 0.316 µM, first compound 10 µM) of 81.9%. The viability, T/C [11] was 76.5%, the viability, T/C [12] was 65.3% and the viability, T/C (second compound 1 µM, first compound 0.316 µM) was 75.6%. It also gave a viability, T/C (second compound 1 µM, first compound 1 µM) of 71.2%, a viability, T/C (second compound 1 µM, first compound 3.16 µM) of 68.5% and a viability, T/C (second compound 1 µM, first compound 10 µM) of 59.7%.

Cn1ncnc1[C@H]1c2n[nH]c(=O)c3cc(F)cc(c23)N[C@@H]1c1ccc(F)cc1 + CC(Nc1ccc2c(c1)OCCn1cc(N3C(=O)OCC3C(F)F)nc1-2)C(N)=O showed an IC50 (second compound 0.00316 µM) greater than 0.1 µM, an IC50 (second compound 0.01 µM) greater than 0.1 µM and an IC50 (second compound 0.0316 µM) greater than 0.1 µM. The IC50 (second compound 0.1 µM) was greater than 0.1 µM, the IC50 (second compound 0.316 µM) was greater than 0.1 µM and the IC50 (second compound 1 µM) was greater than 0.1 µM. The viability, T/C (second compound 0.00316 µM, first compound 0.000316 µM) was 103%, the viability, T/C (second compound 0.00316 µM, first compound 0.001 µM) was 114% and the viability, T/C (second compound 0.00316 µM, first compound 0.00316 µM) was 105%. It also gave a viability, T/C (second compound 0.00316 µM, first compound 0.01 µM) of 86.6%, a viability, T/C [1] of 92.6% and a viability, T/C [2] of 99.7%. The viability, T/C (second compound 0.01 µM, first compound 0.000316 µM) was 131%, the viability, T/C (second compound 0.01 µM, first compound 0.001 µM) was 99.1% and the viability, T/C (second compound 0.01 µM, first compound 0.00316 µM) was 107%. For the same compound, the viability, T/C (second compound 0.01 µM, first compound 0.01 µM) was 84.5%, the viability, T/C [3] was 110% and the viability, T/C [4] was 123%. It also gave a viability, T/C (second compound 0.0316 µM, first compound 0.000316 µM) of 129%, a viability, T/C (second compound 0.0316 µM, first compound 0.001 µM) of 139% and a viability, T/C (second compound 0.0316 µM, first compound 0.00316 µM) of 100%. For the same compound, the viability, T/C (second compound 0.0316 µM, first compound 0.01 µM) was 98.8%, the viability, T/C [5] was 96.3% and the viability, T/C [6] was 123%. It also gave a viability, T/C (second compound 0.1 µM, first compound 0.000316 µM) of 87.6%, a viability, T/C (second compound 0.1 µM, first compound 0.001 µM) of 112% and a viability, T/C (second compound 0.1 µM, first compound 0.00316 µM) of 96.8%. It also gave a viability, T/C (second compound 0.1 µM, first compound 0.01 µM) of 89.1%, a viability, T/C [7] of 118% and a viability, T/C [8] of 102%. The viability, T/C (second compound 0.316 µM, first compound 0.000316 µM) was 82.3%, the viability, T/C (second compound 0.316 µM, first compound 0.001 µM) was 103% and the viability, T/C (second compound 0.316 µM, first compound 0.00316 µM) was 100%. The viability, T/C (second compound 0.316 µM, first compound 0.01 µM) was 88%, the viability, T/C [9] was 99.7% and the viability, T/C [10] was 99.6%. It also gave a viability, T/C (second compound 1 µM, first compound 0.000316 µM) of 77.1%, a viability, T/C (second compound 1 µM, first compound 0.001 µM) of 84.3% and a viability, T/C (second compound 1 µM, first compound 0.00316 µM) of 75.9%. For the same compound, the viability, T/C (second compound 1 µM, first compound 0.01 µM) was 84.9%, the viability, T/C [11] was 79.2% and the viability, T/C [12] was 77.2%.
